Reference: a melting point compilation (Tetko et al.; mined from patent text by program, amines drawn as free bases though some values may be those of a salt)

| SMILES | melting point [°C] |
| --- | --- |
| FC(F)(F)c1ccc(C=Cc2nc(CNc3ccc(OCCCn4ccnn4)cc3)co2)cc1 | 134 to 136 |
| CN(C)c1cccc2c1OC1(CC1)C2=O | 68.3 |
| C(CCc1cncn1Cc1ccccc1)=C(c1ccccc1)c1ccccc1 | 161 to 168 |
| CC1(O)CC(=O)OC(C=Cc2ccc(OCc3ccccc3)cc2)C1 (configuration not stated) | 155 to 156 |
| CC(=O)OC(C)C(=O)Nc1ccc(C2=NNC(=O)CC2C)cc1 (configuration not stated) | 198 to 200 |
| CCn1c(=O)c(C(=O)NCCOC)c(O)c2ccc(C)nc21 | 118 to 120 |
| CCOC(=O)c1ccc2c(c1)CCC(COS(=O)(=O)c1ccc(C)cc1)C2 (configuration not stated) | 76 to 78 |
| NC(=O)c1cccc2nccc(O)c12 | 205 to 207 |
| CNN=C1CCC(C)n2c1ncc(C(=O)O)c2=O (configuration not stated) | 219 to 220 |
| CCCCCS(=O)(=O)NC(=O)/C=C/c1ccc(OCCC(C)(C)O)cc1Oc1ncc(C(F)(F)F)cc1Cl | 136 |
| COc1ccc(-c2cc(-c3nc(C)cs3)c(=O)n(C)c2-c2ccnnc2)cc1 | 271 |
| CCNC(=O)C(C)(Cc1cc2ccccc2s1)C(N)=O (configuration not stated) | 141 to 143 |
| O=[N+]([O-])c1ccc(-c2nn(-c3ccccn3)cc2C=NO)o1 | 234 to 235 |
| Cc1nc2c(OCc3c(Cl)cc(C(O)c4ccccc4)cc3Cl)cccn2c1Br (configuration not stated) | 178 to 179 |
| CC(=O)OCC1c2c(c3ccccc3c3ccccc23)-c2c1c1ccccc1c1ccccc21 | 209 to 210 |
| COc1ccc(/C=C(\C#N)c2c(Cl)cccc2Cl)cc1OC1CCCC1 | 164 to 166 |
| CN[C@@H]1COc2cc(Cl)ccc2O1 | 70 to 71 |
| CCCc1nc(NC)sc1-c1ccncc1 | 150 to 151 |
| C/C=C/C/C=C/CCCCCCCC(=O)Nc1nc(CC(=O)O)cs1 | 101 to 102 |
| Cn1c(-c2ccccc2)cc(=O)c2cc(C(=O)O)ccc21 | > 30 |
| CNc1nnc(C(C)(C)C)c(=O)n1NC | 170 to 171 |
| CC1(C)NC(=O)N(c2ccc([N+](=O)[O-])c(Cl)c2)C1=O | 144 to 145 |
| O=C(NCc1ccccc1Br)c1ccc2cnccc2n1 | 129 to 130 |
| Cc1ccc(-c2nc(C(=O)O)c(C)s2)s1 | 160 to 161 |
| O=C(NCC(=O)N(c1ccccc1)c1ccccc1)Nc1cccc(Cl)c1Cl | 210 |
| CCC1(CCCCN2CCN(c3cccc4c3OCCO4)CC2)C(=O)Nc2ccccc21 (configuration not stated) | 169 to 170 |

| SMILES | melting point [°C] |
| --- | --- |
| c1cc2cc[nH]c2cn1 | 132 to 134 |
| COc1ccc(N2C(=O)C(O[Si](C(C)C)(C(C)C)C(C)C)C2c2ccco2)cc1 (configuration not stated) | 109 to 110 |
| C=CCNc1c(C(=O)OCC)cnc2cn(C(C)(C)OC)nc12 | 102 to 103 |
| CC1COc2ccccc2O1 (configuration not stated) | 86 to 87 |
| CCOC(=O)c1cc(-c2ccc(Cl)cc2)c(Cl)nc1N | 195 to 198 |
| NC(=NO)c1nc(Cl)c(Cl)[nH]1 | 270 to 275 |
| CON=Cc1nn(-c2c(Cl)cc(C(F)(F)F)cc2Cl)c(N)c1S(C)=O (configuration not stated) | 80 |
| Cn1cnc(S(=O)(=O)NCCc2ccc(OCC(=O)O)cc2)c1 | 203 to 204 |
| C=CCc1c[nH]c2c([N+](=O)[O-])cccc2c1=O | 242 |
| CC1C(OC(=O)CCCCCCCCC(=O)OC2C(C)C(c3ccccc3)N(O)C(c3ccccc3)C2C)C(C)C(c2ccccc2)N(O)C1c1ccccc1 (configuration not stated) | 190 to 191 |
| O=C1NC(=O)C(CC#Cc2ccc(Cl)cc2)(Sc2nc3cc(Cl)ccc3s2)S1 (configuration not stated) | 187 to 188 |
| COc1ccc(NS(=O)(=O)c2cc3cc(Br)ccc3oc2=O)cc1 | 182 to 184 |
| CCCCOc1c(CO)n(CC(C)(C)C)c(=O)c2ccc(OCC)cc12 | 92.5 to 93 |
| O=C1CCCCCC1c1ncc[nH]1 (configuration not stated) | 68 to 69 |
| O=C(Cl)Oc1ccc(Cl)c(Cl)c1 | 51 to 53 |
| CN(C)CCCOc1ccc2c(=O)c3ccc(OCCCN(C)C)cc3oc2c1 | 69 to 70 |
| CC(=O)Nc1ncc(/C=C\c2ccc([N+](=O)[O-])cc2)s1 | 221 to 223 |
| COc1ccccc1Sc1c(Cl)ncnc1NS(=O)(=O)c1ccc(C(C)(C)C)cc1 | 186 |
| COC(=O)c1ccc(NCc2cccc(F)c2)cn1 | 89 to 92 |
| O=C(NC(=O)c1ccc(F)cc1Cl)Nc1ccc(Cl)c(Cl)c1 | 208 |
| COc1c(S(N)(=O)=O)c(C)nn1C | 144 to 146 |
| O=CN1CCc2ccccc2CC1 | 65 to 66 |
| CCCC(=O)Nc1n[nH]c2cc(-c3cccnc3)ccc12 | 205 |
| CC(C)C(O)c1cccc(S(N)(=O)=O)c1 (configuration not stated) | 152 to 153 |
| CCCc1nn(C)c2c(=O)[nH]c(-c3sc(S(=O)(=O)N4CCN(C)CC4)cc3OCC)nc12 | 219 to 220 |
| O=C1C=CN2c3ccccc3CCC2C1 (configuration not stated) | 135 to 137 |
